Calls of active or inactive are those of the source. The rule behind the calls is not given here. Starred links: 1 amine or outer side, 2 acyl side, 3 side chain; linkers in the order of their positions; H or OH if unused. Residues, ends and D or L forms follow the SMILES beside them. Groups on a side chain read outwards from the residue. *: point of attachment. Suc = O=C(CCC(=O)[*:2])[*:1]; CO = O=C([*:1])[*:2]; NH(CH2)3NH2 = NCCCN*
How the values were obtained:
[1] = biological target: T1, Neuropeptide Y receptor type 4 (Homo sapiens, UniProt P50391); assay: Intrinsic activity at human neuropeptide Y Y4 receptor expressed in HEK293T-ARRB2 cells assessed as stimulation of beta-arrestin 2 recruitment by multimode plate reader relative to hPP; format: functional, cell-based
[2] = biological target: T1, Neuropeptide Y receptor type 4; assay: Displacement of [3H]UR-KK200 from human neuropeptide Y Y4 receptor expressed in CHO-mtAEQ cells co-expressing Gqi5 assessed as fold change in affinity measured after 90 mins by scintillation counting analysis relative to Ac-Arg-Tyr-Arg-Leu-Arg-Tyr-NH2; format: cell-based; conditions: filed as agonist
Homo sapiens [3] = species on record: Homo sapiens; assay: Selectivity ratio, Ki for displacement of [3H]propionyl-pNPY from human neuropeptide Y Y5 receptor in human HEC-1B cells measured after 90 mins by scintillation counting analysis to Ki for displacement of [3H]UR-KK200 from human neuropeptide Y Y4 receptor expressed in CHO-mtAEQ cells co-expressing Gqi5 measured after 90 mins by scintillation counting analysis; format: cell-based
Homo sapiens [4] = species on record: Homo sapiens; assay: Selectivity ratio, Ki for displacement of [3H]UR-MK299 from human neuropeptide Y Y2 receptor expressed in CHO cells measured after 90 mins by scintillation counting analysis to Ki for displacement of [3H]UR-KK200 from human neuropeptide Y Y4 receptor expressed in CHO-mtAEQ cells co-expressing Gqi5 measured after 90 mins by scintillation counting analysis; format: cell-based
[5] = biological target: T1, Neuropeptide Y receptor type 4; assay: Intrinsic activity at human neuropeptide Y Y4 receptor expressed in CHO-mtAEQ cells co-expressing Gqi5 by calcium aequorin assay; format: functional, cell-based
[6] = biological target: T1, Neuropeptide Y receptor type 4; assay: Agonist activity at human neuropeptide Y Y4 receptor expressed in HEK293T-ARRB1 cells assessed as stimulation of beta-arrestin 1 recruitment by multimode plate reader; format: functional, cell-based
[7] = biological target: T1, Neuropeptide Y receptor type 4; assay: Agonist activity at human neuropeptide Y Y4 receptor expressed in CHO-mtAEQ cells co-expressing Gqi5 by calcium aequorin assay; format: functional, cell-based
[8] = biological target: T1, Neuropeptide Y receptor type 4; assay: Intrinsic activity at human neuropeptide Y Y4 receptor expressed in HEK293T-ARRB1 cells assessed as stimulation of beta-arrestin 1 recruitment by multimode plate reader relative to hPP; format: functional, cell-based
[9] = biological target: T2, Neuropeptide Y receptor type 5 (Homo sapiens, UniProt Q15761); assay: Displacement of [3H]propionyl-pNPY from human neuropeptide Y Y5 receptor in human HEC-1B cells measured after 90 mins by scintillation counting analysis; format: cell-based, HEC-1B cell line
T2 sequence (Q15761 whole entry): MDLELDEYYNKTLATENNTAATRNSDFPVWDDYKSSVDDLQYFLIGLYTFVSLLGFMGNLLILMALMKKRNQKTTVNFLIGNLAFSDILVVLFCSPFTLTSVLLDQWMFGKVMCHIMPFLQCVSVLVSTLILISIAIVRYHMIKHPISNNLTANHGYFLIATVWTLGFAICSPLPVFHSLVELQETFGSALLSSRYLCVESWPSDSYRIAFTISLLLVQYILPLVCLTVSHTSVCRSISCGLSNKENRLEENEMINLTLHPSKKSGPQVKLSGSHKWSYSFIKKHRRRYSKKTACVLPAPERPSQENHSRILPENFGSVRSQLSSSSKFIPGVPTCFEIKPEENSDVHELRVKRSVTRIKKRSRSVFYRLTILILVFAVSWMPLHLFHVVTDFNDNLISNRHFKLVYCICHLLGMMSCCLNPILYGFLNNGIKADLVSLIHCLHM

[10] = biological target: T1, Neuropeptide Y receptor type 4; assay: Displacement of [3H]UR-KK200 from human neuropeptide Y Y4 receptor expressed in CHO-mtAEQ cells co-expressing Gqi5 measured after 90 mins by scintillation counting analysis; format: cell-based
[11] = biological target: T3, Neuropeptide Y receptor type 1 (Homo sapiens, UniProt P25929); assay: Displacement of [3H]UR-MK299 from human neuropeptide Y Y1 receptor in human SK-N-MC cells measured after 90 mins by scintillation counting analysis; format: cell-based
T3 sequence (P25929 whole entry): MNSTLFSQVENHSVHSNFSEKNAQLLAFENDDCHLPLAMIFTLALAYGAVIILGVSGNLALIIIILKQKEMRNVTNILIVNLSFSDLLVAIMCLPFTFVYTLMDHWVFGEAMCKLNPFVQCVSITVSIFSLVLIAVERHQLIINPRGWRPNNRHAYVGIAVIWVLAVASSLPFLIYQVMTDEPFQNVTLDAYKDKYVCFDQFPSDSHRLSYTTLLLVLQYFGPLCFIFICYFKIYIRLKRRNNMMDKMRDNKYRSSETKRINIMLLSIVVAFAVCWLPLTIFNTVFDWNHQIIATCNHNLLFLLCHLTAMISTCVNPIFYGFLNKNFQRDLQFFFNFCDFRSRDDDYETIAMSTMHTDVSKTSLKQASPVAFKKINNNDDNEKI

[12] = biological target: T1, Neuropeptide Y receptor type 4; assay: Agonist activity at human neuropeptide Y Y4 receptor expressed in HEK293T-ARRB2 cells assessed as stimulation of beta-arrestin 2 recruitment by multimode plate reader; format: functional, cell-based
[13] = biological target: T4, Neuropeptide Y receptor type 2 (Homo sapiens, UniProt P49146); assay: Displacement of [3H]UR-MK299 from human neuropeptide Y Y2 receptor expressed in CHO cells measured after 90 mins by scintillation counting analysis; format: cell-based
T4 sequence (P49146 whole entry): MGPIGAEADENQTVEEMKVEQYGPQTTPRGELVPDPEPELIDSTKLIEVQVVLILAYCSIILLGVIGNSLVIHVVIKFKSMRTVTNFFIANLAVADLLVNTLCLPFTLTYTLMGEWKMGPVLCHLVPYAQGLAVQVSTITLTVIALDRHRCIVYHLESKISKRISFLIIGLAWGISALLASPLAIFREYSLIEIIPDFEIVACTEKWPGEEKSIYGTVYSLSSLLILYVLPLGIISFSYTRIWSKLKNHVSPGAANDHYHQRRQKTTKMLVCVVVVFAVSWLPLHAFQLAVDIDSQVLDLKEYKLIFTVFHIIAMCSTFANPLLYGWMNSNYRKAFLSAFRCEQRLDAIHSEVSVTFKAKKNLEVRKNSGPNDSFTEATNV

Homo sapiens [14] = species on record: Homo sapiens; assay: Selectivity ratio, Ki for displacement of [3H]UR-MK299 from human neuropeptide Y Y1 receptor in human SK-N-MC cells measured after 90 mins by scintillation counting analysis to Ki for displacement of [3H]UR-KK200 from human neuropeptide Y Y4 receptor expressed in CHO-mtAEQ cells co-expressing Gqi5 measured after 90 mins by scintillation counting analysis; format: cell-based
[15] = Stability in human plasma assessed as intact peptide measured after 1 hr at 37 degC by RP-HPLC analysis; format: ADME, cell-free; conditions: read-out: Stability
[16] = Stability in human plasma assessed as intact peptide measured after 30 mins at 37 degC by RP-HPLC analysis; format: ADME, cell-free; conditions: read-out: Stability
[17] = Stability in human plasma assessed as intact peptide measured after 6 hr at 37 degC by RP-HPLC analysis; format: ADME, cell-free; conditions: read-out: Stability
[18] = Stability in human plasma assessed as intact peptide measured after 2 hr at 37 degC by RP-HPLC analysis; format: ADME, cell-free; conditions: read-out: Stability
[19] = Stability in human plasma assessed as half life at 37 degC by RP-HPLC analysis; format: ADME, cell-free

T1 sequence (P50391 whole entry): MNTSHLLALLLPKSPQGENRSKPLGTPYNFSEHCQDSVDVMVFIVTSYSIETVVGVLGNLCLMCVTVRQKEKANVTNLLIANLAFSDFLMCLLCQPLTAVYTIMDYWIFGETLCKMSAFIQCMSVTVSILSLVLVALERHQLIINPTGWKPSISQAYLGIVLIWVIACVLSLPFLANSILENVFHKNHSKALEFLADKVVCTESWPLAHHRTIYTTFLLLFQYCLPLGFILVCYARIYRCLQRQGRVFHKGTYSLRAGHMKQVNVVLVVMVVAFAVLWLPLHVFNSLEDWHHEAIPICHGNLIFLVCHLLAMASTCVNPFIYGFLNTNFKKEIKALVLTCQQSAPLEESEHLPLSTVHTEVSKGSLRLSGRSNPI

Intrinsic activity [1]	fold change (FC) [2]	Intrinsic activity [5]	EC50 ([6]; read-out: EC50) [nM]	EC50 [7] [nM]	Intrinsic activity [8]	Ki ([9]; read-out: Ki) [µM]	Ki ([9]; read-out: pKi (converted)) [µM]	Ki ([10]; read-out: Ki) [nM]	Ki ([11]; read-out: pKi (converted)) [µM]	EC50 [12] [nM]	Ki ([13]; read-out: Ki) [µM]	Ki ([13]; read-out: pKi (converted)) [µM]	Ki ([10]; read-out: pKi (converted)) [nM]	Compound	Selectivity ratio (Homo sapiens [3])	Selectivity ratio (Homo sapiens [4])	Selectivity ratio (Homo sapiens [14])	further results
67%	14	75%	14	25.7	61%	> 3	> 3.16	0.24	> 3.16	12.9	> 10	> 10		CC(C)C[C@H](NC(=O)[C@@H]1CCCNC(=N)NC(=O)NCCCCNC(=O)CCC(=O)N[C@@H](CCCCN)C(=O)N[C@@H](Cc2ccc(O)cc2)C(=O)N1)C(=O)N[C@@H](CCCNC(=N)N)C(=O)N[C@@H](Cc1ccc(O)cc1)C(N)=O (HELM PEPTIDE1{K.Y.[N=C(NCCC[C@H](N[*:1])C(=O)[*:2])N[*:3]].L.R.Y.[am]}|CHEM1{[O=C(CCC(=O)[*:1])NCCCCNC(=O)[*:2]]}$PEPTIDE1,CHEM1,1:R1-1:R1|PEPTIDE1,CHEM1,3:R3-1:R2$$$V2.0)	> 12000	> 40000	> 12000	Ki ([11]; read-out: Ki): > 3 µM
														CC(=O)N[C@@H](CCCNC(=N)N)C(=O)N[C@@H](Cc1ccc(O)cc1)C(=O)N[C@@H](CCCN/C(N)=N/C(=O)NCCCCN)C(=O)N[C@@H](CC(C)C)C(=O)N[C@@H](CCCNC(=N)N)C(=O)N[C@@H](Cc1ccc(O)cc1)C(N)=O (HELM PEPTIDE1{[ac].R.Y.[NCCCCNC(=O)/N=C(\N)NCCC[C@H](N[*:1])C(=O)[*:2]].L.R.Y.[am]}$$$$V2.0)				remaining at 1 h [15]: 77%; remaining at 0.5 h [16]: > 99%; remaining at 6 h [17]: 9%; remaining at 2 h [18]: 38%; half-life [19]: 102 min
inactive	-19	inactive		91.2	inactive	> 3	> 3.16	63	> 10	89.1	> 3	> 3.16	56.2	N=C(N)NCCC[C@H](NC(=O)CCC(=O)O)C(=O)N[C@@H](Cc1ccc(O)cc1)C(=O)N[C@@H](CCCNC(=N)NC(=O)NCCCN)C(=O)N[C@@H](Cc1c[nH]c2ccccc12)C(=O)N[C@@H](CCCNC(=N)N)C(=O)N[C@@H](Cc1ccc(O)cc1)C(N)=O (Suc-RYR([CO-NH(CH2)3NH2])WRY-NH2)	> 47	> 47	> 150	EC50 ([6]; read-out: pEC50 (converted)): 123 nM
87%	26	83%	3.5	15.1	90%	> 3	> 1	0.13	> 10	5.37	> 3	> 3.16	0.117	CC(C)C[C@H](NC(=O)[C@@H]1CCCNC(=N)NC(=O)NCCCNC(=O)CCC(=O)N[C@@H](CCCNC(=N)N)C(=O)N[C@@H](Cc2ccc(O)cc2)C(=O)N1)C(=O)N[C@@H](CCCNC(=N)N)C(=O)N[C@@H](Cc1ccc(O)cc1)C(N)=O	> 23000	> 23000	> 76000	

Source: ChEMBL document CHEMBL4840359, “N-Terminus to Arginine Side-Chain Cyclization of Linear Peptidic Neuropeptide Y Y4 Receptor Ligands Results in Picomolar Binding Constants” (J Med Chem, 2021)
